Source: the supplement of paper PMC9386025

Legend:
Assay in all cases: drug sensitivity score (DSS) (DSS (dimensionless)); higher = more sensitive (stronger drug response)
[1] = tested on: FIMM-PDC1 (patient-derived ovarian cancer cells); conditions: genetic perturbation: none (patient-derived cell culture)
Procedure, shortened: (§1)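 Drugs were pre-plated in 384-well plates at five concentrations covering a 10,000-fold range, and 1 000 – 1 500 cells per well were added from patient-derived cultures or from ovarian cancer cell lines whose shRNA had been induced with 100 ng/ml doxycycline for three days or longer. Incubation lasted three days at 37 °C under 5.0 % CO2. A PHERAstar FS then recorded CellTiter-Glo luminescence as the readout of viability. A drug sensitivity score, calculated as described before, summarised the dose-response curve of every drug.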

[2] = tested on: FIMM-PDC3 (patient-derived ovarian cancer cells); conditions: genetic perturbation: none (patient-derived cell culture)
Procedure, shortened: as §1

[3] = tested on: FIMM-PDC4 (patient-derived ovarian cancer cells); conditions: genetic perturbation: none (patient-derived cell culture)
Procedure, shortened: as §1

[4] = tested on: FIMM-PDC5 (patient-derived ovarian cancer cells); conditions: genetic perturbation: none (patient-derived cell culture)
Procedure, shortened: as §1

[5] = tested on: FIMM-PDC6 (patient-derived ovarian cancer cells); conditions: genetic perturbation: none (patient-derived cell culture)
Procedure, shortened: as §1

[6] = tested on: FIMM-PDC7 (patient-derived ovarian cancer cells); conditions: genetic perturbation: none (patient-derived cell culture)
Procedure, shortened: as §1

[7] = tested on: JHOS2
Procedure, shortened: as §1

[8] = tested on: Kuramochi
Procedure, shortened: as §1

[9] = tested on: OVSAHO
Procedure, shortened: as §1

[10] = genetic perturbation: DOX-induced PTK7 shRNA knockdown
[11] = genetic perturbation: DOX-induced control shRNA

Structure (SMILES) | drug sensitivity score [1] | drug sensitivity score [2] | drug sensitivity score [3] | drug sensitivity score [4] | drug sensitivity score [5] | drug sensitivity score [6] | drug sensitivity score [7, 10] | drug sensitivity score [7, 11] | drug sensitivity score [8, 10] | drug sensitivity score [8, 11] | drug sensitivity score [9, 10] | drug sensitivity score [9, 11]
O=C(/C=C\n1cnc(-c2cc(C(F)(F)F)cc(C(F)(F)F)c2)n1)NNc1ccccn1 [Verdinexor] | 3.7 | 10.9 | 11.2 | 11 | 11.7 | 11.5 | 11.3 | 7.7 | 4.4 | 5.2 | 6.1 | 3.2
CCOc1cc2ncc(C#N)c(Nc3ccc(OCc4ccccn4)c(Cl)c3)c2cc1NC(=O)/C=C/CN(C)C [Neratinib] | 1.15 | 9.5 | 11.9 | 16.1 | 14.1 | 8.3 | 0.6 | 5.2 | 0.45 | < 0 | 0.8 | 0.4
CN(C)C/C=C/C(=O)Nc1cc2c(Nc3ccc(F)c(Cl)c3)ncnc2cc1O[C@H]1CCOC1 [Afatinib] | 4.1 | 11 | 15.9 | 21.9 | 15.8 | 13.6 | < 0 | 1.8 | 1.7 | 1.5 | 1.9 | 1.9
CCn1c(-c2nonc2N)nc2c(C#CC(C)(C)O)ncc(OC[C@H]3CCCNC3)c21 | 7.3 | 1.5 | 7.2 | 8.3 | 5.7 | 11.5 | < 0 | 0.5 | 0.9 | < 0 | < 0 | 4.8
CC(C)C[C@H](NC(=O)CNC(=O)c1cc(Cl)ccc1Cl)B(O)O [Ixazomib] | 13.6 | 17.1 | 13.8 | 12 | 19.2 | 16.8 | 13.5 | 7.8 | 3.55 | 5 | 5.1 | 2
COc1cc([C@@H]2c3cc4c(cc3[C@@H](O[C@@H]3O[C@@H]5CO[C@@H](C)O[C@H]5[C@H](O)[C@H]3O)[C@H]3COC(=O)[C@H]23)OCO4)cc(OC)c1O [Etoposide] | 2.55 | 4.8 | 1.8 | 1.9 | 2.9 | 1 | 4.7 | 2.1 | 0.5 | 2 | 2.7 | < 0
COc1cc(NS(C)(=O)=O)ccc1Nc1c2ccccc2nc2ccccc12 [Amsacrine] | 4.55 | 6.3 | 5.1 | 5.8 | 3.9 | 4 | 3.3 | 4.4 | 1.25 | 1.4 | 5.3 | < 0
